Where two headings read alike, the source gives them in different places. Blank lines part the entries; values can stand above or below the compound they belong to.
How the values were obtained:
Format in all cases: biochemical
[1] = molecular target: T1, Arthrobacter sp. S3* Bgal42 (GH42 β-D-galactosidase) (Arthrobacter sp. ON14, UniProt D9IU57, P2A/G388S/G665D); assay: inhibition of ONPG hydrolysis, absorbance […] nm; conditions: 5 mM monosaccharide, 1-5 mM ONPG, 20 mM potassium phosphate, pH 7.0, 30 °C, read-out: apparent Ki
T1 construct: gene galB
T1 sequence (D9IU57 entry or part of it P2A/G388S/G665D): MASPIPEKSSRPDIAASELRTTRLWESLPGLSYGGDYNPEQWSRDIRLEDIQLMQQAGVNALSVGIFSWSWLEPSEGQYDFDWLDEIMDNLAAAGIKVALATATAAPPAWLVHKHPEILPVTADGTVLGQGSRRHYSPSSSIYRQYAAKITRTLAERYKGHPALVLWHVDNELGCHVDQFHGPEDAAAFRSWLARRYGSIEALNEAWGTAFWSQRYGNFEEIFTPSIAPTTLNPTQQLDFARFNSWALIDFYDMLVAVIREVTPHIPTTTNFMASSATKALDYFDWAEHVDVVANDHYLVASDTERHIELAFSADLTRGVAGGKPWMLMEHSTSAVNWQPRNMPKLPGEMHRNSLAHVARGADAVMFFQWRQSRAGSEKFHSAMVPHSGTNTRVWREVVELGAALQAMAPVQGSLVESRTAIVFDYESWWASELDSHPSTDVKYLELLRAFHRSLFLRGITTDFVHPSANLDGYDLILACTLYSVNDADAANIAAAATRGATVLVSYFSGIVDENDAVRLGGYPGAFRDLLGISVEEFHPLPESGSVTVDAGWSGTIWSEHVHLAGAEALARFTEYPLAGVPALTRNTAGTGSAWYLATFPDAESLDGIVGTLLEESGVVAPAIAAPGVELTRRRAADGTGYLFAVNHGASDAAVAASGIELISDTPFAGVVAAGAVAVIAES

[2] = molecular target: T2, Arthrobacter sp. S3* Bgal2 (GH2 β-D-galactosidase) (Arthrobacter sp. ON14, UniProt D9IU58); assay: o-nitrophenol release, absorbance […] nm, Lineweaver-Burk; conditions: 20 mM potassium phosphate, 50 mM KCl, pH 7.5, 20 °C; read-out: Km (mM) / ONPG
T2 construct: gene galA
T2 sequence (D9IU58 entry or part of it): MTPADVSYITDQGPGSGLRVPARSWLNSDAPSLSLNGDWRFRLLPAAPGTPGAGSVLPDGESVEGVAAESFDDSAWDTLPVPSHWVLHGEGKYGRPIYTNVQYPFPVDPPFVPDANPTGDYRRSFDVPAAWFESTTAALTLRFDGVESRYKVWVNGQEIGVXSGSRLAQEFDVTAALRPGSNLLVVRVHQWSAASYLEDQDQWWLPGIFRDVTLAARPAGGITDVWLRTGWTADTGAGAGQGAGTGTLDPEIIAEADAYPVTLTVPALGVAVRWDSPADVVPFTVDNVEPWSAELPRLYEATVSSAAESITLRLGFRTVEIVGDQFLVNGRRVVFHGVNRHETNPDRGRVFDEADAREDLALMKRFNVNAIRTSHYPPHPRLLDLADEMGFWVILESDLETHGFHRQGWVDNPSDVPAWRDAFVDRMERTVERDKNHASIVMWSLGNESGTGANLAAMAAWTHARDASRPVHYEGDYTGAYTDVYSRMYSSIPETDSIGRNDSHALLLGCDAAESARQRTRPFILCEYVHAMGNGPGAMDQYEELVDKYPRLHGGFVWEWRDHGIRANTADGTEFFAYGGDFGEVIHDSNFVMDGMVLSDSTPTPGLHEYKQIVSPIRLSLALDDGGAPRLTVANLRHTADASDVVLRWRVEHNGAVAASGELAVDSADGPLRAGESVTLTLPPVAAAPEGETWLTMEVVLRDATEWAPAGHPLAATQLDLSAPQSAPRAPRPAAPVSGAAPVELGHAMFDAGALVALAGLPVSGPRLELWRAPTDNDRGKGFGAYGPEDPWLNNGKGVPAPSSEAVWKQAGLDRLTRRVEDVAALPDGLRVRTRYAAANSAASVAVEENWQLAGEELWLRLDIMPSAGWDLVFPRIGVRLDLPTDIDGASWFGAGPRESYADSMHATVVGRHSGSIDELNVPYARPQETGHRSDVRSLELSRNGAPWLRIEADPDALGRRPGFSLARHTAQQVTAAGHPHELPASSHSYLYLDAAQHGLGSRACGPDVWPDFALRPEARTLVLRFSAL
From the text: S3* Bgal2 (GH2 β-D-galactosidase)

[3] = molecular target: T2, Arthrobacter sp. S3* Bgal2 (GH2 β-D-galactosidase); assay: glucose release by Glucose (GO) Assay Kit, Lineweaver-Burk; conditions: read-out: Km (mM) / Lactose; 20 mM potassium phosphate, 50 mM KCl, pH 7.5, 20 °C
From the text: glucose release by Glucose (GO) Assay Kit, Lineweaver-Burk on Arthrobacter sp. S3* Bgal2 (GH2 β-D-galactosidase)

- Ki ([1]; competitive): 2.99 mM
Structure (SMILES): OC[C@H]1OC(O)[C@H](O)[C@@H](O)[C@H]1O (stereo partly drawn) [D-galactose]

- Ki ([1]; uncompetitive): 6.01 mM
Structure (SMILES): OC[C@H]1OC(O)[C@H](O)[C@@H](O)[C@@H]1O (stereo partly drawn) [D-glucose]

- Km [2]: 0.32 ± 0.07 mM
Structure (SMILES): O=[N+]([O-])c1ccccc1O[C@@H]1O[C@H](CO)[C@H](O)[C@H](O)[C@H]1O [ONPG]

- Km [3]: 16.7 ± 0.81 mM
Structure (SMILES): OC[C@H]1O[C@@H](O[C@H]2[C@H](O)[C@@H](O)C(O)O[C@@H]2CO)[C@H](O)[C@@H](O)[C@H]1O (stereo partly shown) [lactose]

— article PMC11677235, “Heterologous Production, Purification and Characterization of Two Cold-Active β-D-Galactosidases with Transglycosylation Activity from the Psychrotolerant Arctic Bacterium Arthrobacter sp. S3* Isolated from Spitsbergen Island Soil” (International Journal of Molecular Sciences, 2024)
